In PMC12372887, “Mechanism and cellular actions of the potent AMPK inhibitor BAY-3827” (Science Advances, 2025):

Columns and labels:
Test in all cases: Kinase panel (140 human kinases)
Assay type in all cases: biochemical
BRK = BRK (Homo sapiens, UniProt Q13882)
In short: (§1)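 Duplicate radiometric filter-binding measurements with [γ-^33P]ATP gave percent residual activity, mean and SD. Tested concentrations: 0.1 μM and, for BAY-3827, 1 μM. ATP set per kinase to 5, 20 or 50 μM, not above Km.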

CLK2 = CLK2 (Homo sapiens, UniProt P49760)
Chain of CLK2 (P49760 whole entry): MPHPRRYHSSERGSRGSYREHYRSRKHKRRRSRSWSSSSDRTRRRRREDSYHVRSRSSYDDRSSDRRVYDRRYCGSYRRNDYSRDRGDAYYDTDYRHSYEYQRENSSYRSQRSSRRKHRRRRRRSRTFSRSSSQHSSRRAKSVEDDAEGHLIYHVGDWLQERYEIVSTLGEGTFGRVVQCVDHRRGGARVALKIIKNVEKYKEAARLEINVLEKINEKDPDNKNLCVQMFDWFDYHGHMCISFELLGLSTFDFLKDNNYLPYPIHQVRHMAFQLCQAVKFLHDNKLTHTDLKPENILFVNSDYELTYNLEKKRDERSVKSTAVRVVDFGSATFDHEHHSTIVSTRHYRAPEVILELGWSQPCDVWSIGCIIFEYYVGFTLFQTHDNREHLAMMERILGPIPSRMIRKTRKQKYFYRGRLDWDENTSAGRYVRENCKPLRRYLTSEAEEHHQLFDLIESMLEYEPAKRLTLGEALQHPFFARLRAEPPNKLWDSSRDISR
In short: as §1

CSK = CSK (Homo sapiens, UniProt P41240)
Chain of CSK (P41240 whole entry): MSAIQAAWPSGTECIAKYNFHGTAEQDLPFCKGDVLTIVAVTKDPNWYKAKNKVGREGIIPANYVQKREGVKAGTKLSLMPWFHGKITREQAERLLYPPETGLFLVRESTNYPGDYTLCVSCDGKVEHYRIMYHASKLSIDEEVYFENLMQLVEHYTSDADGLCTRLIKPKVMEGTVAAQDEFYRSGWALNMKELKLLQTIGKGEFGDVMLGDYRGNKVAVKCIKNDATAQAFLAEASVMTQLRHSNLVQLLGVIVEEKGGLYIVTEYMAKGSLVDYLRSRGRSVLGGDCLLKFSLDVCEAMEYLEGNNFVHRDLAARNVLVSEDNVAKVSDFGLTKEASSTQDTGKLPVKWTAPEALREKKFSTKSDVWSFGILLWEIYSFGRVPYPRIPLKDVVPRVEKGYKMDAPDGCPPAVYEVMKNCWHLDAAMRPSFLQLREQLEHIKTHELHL
In short: as §1

DYRK3 = DYRK3 (Homo sapiens, UniProt O43781)
Chain of DYRK3 (O43781 whole entry): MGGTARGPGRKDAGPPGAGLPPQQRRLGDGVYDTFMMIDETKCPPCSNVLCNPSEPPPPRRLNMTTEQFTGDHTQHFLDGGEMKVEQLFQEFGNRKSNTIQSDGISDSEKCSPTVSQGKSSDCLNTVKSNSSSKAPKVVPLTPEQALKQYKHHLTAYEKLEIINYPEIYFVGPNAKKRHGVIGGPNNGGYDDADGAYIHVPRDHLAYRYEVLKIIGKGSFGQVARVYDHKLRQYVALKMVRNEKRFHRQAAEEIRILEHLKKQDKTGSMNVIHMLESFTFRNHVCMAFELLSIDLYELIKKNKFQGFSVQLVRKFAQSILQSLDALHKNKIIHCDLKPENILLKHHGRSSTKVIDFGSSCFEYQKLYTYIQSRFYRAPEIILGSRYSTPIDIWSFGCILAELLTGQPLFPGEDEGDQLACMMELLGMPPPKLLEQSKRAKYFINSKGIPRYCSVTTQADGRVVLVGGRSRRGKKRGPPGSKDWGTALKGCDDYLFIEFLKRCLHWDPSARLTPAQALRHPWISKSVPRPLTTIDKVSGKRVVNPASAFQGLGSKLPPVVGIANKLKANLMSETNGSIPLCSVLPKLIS
In short: as §1

EPH-B1 = EPH-B1 (Homo sapiens, UniProt P54762)
Chain of EPH-B1 (P54762 18-984): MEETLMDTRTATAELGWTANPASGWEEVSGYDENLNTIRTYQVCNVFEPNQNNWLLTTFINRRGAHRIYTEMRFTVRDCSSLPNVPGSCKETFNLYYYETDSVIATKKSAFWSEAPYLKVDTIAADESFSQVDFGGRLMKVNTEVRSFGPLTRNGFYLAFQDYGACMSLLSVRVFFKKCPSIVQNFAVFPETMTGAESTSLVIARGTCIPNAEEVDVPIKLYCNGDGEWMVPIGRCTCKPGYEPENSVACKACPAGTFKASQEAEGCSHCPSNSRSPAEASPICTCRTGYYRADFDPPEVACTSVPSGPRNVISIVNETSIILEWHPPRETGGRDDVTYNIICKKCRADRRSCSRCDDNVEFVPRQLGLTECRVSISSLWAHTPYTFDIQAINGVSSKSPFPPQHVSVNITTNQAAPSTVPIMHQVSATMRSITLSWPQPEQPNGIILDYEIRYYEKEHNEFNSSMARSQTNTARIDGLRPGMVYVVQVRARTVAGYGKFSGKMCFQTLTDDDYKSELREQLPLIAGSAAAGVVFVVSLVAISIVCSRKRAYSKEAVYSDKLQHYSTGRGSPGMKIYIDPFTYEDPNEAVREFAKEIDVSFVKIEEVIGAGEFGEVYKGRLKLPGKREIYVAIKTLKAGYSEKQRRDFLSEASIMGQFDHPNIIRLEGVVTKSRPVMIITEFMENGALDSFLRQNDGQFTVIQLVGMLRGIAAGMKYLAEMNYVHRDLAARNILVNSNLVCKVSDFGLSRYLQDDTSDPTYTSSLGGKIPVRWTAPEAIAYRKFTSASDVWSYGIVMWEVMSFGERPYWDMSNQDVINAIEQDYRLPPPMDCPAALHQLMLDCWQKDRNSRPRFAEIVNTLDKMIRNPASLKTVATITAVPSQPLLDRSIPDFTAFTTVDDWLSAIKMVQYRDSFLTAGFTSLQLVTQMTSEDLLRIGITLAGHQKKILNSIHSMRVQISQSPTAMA
In short: as §1

JNK1 = JNK1 (Homo sapiens, UniProt P45983)
Chain of JNK1 (P45983 whole entry): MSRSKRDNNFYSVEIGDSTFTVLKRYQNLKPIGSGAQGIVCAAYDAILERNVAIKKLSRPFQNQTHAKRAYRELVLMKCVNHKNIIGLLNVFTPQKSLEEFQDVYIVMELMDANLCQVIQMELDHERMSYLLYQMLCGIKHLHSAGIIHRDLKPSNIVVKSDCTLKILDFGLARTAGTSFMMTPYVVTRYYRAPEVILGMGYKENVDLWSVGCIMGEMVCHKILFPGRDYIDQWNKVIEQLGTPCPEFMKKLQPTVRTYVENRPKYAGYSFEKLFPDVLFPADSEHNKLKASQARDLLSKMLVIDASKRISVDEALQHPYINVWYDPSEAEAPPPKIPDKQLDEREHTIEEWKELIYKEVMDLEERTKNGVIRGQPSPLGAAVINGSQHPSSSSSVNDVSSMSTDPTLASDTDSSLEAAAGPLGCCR
In short: as §1

MNK2 = MNK2 (Homo sapiens, UniProt Q9HBH9)
In short: as §1

NUAK1 = target: T1, NUAK1 (Homo sapiens, UniProt O60285)
T1 sequence (O60285 1-661): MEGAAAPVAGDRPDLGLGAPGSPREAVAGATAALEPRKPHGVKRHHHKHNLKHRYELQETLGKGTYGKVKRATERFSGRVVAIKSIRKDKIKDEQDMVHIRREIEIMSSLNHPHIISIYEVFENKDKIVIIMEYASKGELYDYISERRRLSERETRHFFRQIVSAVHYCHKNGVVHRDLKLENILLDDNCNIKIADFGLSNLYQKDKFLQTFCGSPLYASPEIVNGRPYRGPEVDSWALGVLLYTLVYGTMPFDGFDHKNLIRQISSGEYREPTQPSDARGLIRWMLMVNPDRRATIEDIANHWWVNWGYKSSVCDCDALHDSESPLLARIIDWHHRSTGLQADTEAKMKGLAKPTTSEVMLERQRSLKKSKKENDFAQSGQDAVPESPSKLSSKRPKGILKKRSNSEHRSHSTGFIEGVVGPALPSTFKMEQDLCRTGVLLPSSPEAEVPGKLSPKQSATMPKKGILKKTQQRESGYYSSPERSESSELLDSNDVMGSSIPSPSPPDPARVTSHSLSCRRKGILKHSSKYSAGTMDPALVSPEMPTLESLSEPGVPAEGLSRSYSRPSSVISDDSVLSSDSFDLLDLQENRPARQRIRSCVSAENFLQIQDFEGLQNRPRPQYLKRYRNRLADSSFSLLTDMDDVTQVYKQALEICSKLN
In short: as §1

PIM3 = PIM3 (Homo sapiens, UniProt Q86V86)
In short: as §1

PKCγ = PKCγ (Homo sapiens, UniProt P05129)
In short: as §1

RIPK2 = RIPK2 (Homo sapiens, UniProt O43353)
Chain of RIPK2 (O43353 whole entry): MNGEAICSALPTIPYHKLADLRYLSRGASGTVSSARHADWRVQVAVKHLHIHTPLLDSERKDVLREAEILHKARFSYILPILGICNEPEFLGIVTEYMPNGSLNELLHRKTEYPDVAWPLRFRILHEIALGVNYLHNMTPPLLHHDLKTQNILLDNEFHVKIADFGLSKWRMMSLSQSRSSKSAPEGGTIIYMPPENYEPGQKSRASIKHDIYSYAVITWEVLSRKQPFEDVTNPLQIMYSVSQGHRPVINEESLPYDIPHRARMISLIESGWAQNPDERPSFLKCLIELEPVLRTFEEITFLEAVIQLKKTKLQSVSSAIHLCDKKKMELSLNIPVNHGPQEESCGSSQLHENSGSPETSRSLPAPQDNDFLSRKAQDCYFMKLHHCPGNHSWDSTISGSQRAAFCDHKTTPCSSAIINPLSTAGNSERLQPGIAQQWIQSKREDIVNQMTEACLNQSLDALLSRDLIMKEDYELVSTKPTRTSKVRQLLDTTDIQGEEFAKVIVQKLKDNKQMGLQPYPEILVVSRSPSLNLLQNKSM
In short: as §1

SYK = SYK (Homo sapiens, UniProt P43405)
In short: as §1

TTK = TTK (Homo sapiens, UniProt P33981)
In short: as §1

ULK1 = target: T2, ULK1 (Homo sapiens, UniProt O75385)
T2 sequence (O75385 1-1050): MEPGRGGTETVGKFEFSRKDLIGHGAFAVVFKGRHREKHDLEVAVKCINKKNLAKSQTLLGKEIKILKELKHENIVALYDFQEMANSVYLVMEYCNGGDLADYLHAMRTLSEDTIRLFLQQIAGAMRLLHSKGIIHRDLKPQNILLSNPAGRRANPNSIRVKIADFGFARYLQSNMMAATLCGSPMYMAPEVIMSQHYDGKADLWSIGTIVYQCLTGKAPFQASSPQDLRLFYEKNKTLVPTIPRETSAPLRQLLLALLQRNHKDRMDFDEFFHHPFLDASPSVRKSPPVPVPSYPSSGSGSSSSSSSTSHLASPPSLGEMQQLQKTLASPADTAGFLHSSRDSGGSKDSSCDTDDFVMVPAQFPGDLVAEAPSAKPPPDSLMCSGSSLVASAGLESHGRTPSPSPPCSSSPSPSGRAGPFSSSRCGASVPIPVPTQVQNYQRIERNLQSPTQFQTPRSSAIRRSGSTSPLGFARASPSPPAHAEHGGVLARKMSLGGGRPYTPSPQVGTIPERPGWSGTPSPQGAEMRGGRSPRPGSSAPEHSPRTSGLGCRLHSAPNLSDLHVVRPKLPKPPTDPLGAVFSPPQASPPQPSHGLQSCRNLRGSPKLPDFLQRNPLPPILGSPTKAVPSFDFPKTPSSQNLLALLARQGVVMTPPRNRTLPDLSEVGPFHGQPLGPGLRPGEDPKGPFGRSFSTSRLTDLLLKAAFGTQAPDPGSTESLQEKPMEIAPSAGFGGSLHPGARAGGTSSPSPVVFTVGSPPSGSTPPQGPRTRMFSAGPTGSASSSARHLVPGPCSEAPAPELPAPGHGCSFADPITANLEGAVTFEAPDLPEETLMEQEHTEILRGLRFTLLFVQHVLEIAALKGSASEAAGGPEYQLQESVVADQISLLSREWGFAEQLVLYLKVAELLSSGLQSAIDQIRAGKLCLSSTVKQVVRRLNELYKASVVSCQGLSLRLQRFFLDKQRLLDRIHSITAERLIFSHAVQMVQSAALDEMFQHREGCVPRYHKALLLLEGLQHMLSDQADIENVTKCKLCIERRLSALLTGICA
In short: as §1

VEG-FR = conditions: 0.1 μM
In short: as §1

YES1 = YES1 (Homo sapiens, UniProt P07947)
Chain of YES1 (P07947 whole entry): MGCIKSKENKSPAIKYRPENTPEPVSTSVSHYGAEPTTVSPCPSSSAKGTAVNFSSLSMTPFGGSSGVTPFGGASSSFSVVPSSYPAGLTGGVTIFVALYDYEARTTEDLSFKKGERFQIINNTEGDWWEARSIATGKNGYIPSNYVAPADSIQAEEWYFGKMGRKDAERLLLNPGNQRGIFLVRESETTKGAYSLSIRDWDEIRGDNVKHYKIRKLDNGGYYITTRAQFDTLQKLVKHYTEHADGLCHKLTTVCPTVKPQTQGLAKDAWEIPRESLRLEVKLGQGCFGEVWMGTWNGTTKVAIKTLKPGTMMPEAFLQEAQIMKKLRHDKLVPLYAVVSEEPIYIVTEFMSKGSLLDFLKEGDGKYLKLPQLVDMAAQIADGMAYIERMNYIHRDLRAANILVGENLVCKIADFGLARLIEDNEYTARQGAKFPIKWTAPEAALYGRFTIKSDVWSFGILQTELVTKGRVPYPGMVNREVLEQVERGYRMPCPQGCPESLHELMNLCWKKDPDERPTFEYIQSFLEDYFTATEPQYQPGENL
In short: as §1

[1] = 1 μM, cross-referenced with screen data of ref 37, read-out: activity remaining after treatment

Chain of BRK (Q13882 whole entry): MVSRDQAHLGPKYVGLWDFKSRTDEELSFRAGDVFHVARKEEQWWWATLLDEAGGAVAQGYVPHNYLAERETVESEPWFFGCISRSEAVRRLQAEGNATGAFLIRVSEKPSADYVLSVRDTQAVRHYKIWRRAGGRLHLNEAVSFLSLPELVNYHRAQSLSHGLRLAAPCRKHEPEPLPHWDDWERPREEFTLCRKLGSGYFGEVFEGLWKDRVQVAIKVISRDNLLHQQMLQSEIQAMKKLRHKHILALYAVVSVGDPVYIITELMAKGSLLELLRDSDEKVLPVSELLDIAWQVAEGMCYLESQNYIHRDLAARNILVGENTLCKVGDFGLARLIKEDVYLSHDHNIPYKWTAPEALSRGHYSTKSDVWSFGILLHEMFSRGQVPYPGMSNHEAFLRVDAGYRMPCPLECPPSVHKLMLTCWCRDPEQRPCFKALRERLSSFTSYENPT

Structure (SMILES) | remaining activity at 0.1 µM (BRK) [%] | remaining activity at 0.1 µM (CLK2) [%] | remaining activity at 0.1 µM (CSK) [%] | remaining activity at 0.1 µM (DYRK3) [%] | remaining activity at 0.1 µM (EPH-B1) [%] | remaining activity at 0.1 µM (JNK1) [%] | remaining activity at 0.1 µM (MNK2) [%] | remaining activity at 0.1 µM (NUAK1) [%] | remaining activity at 0.1 µM (PIM3) [%] | remaining activity at 0.1 µM (PKCγ) [%] | remaining activity at 0.1 µM (RIPK2) [%] | remaining activity at 0.1 µM (TTK) [%] | remaining activity at 0.1 µM (ULK1) [%] | Kinase activity remaining (%) (VEG-FR) | remaining activity at 0.1 µM (YES1) [%] | further results
CCc1ccccc1C(=O)Nc1n[nH]c2c(C)c(F)c(C3C(C#N)=C(C)N(C)C(C)=C3C#N)cc12 [BAY-3827, N-[5-(3,5-dicyano-1,2,6-trimethyl-4H-pyridin-4-yl)-6-fluoro-7-methyl-1H-indazol-3-yl]-2-ethylbenzamide] | 83 | 87 | 79 | 97 | 91 | 94 | 99 | 68 | 101 | 94 | 102 | 74 | 88 | 89 | 98 | remaining activity at 1 µM (NUAK1; [1]): ≤ 50%; remaining activity at 1 µM (PIM3; [1]): ≥ 99%; remaining activity at 0.1 µM (SYK): 91%
CC1=C(C#N)C(c2ccc3c(c2)c(NC(=O)c2ccccc2C)nn3C)C(C#N)=C(C)N1 [BAY-974, N-[5-(3,5-dicyano-2,6-dimethyl-1,4-dihydropyridin-4-yl)-1-methylindazol-3-yl]-2-methylbenzamide] | 70 | 93 | 123 | 83 | 107 | 106 | 98 | 60 | 125 | 115 | 108 | 79 | ≤ 50 | 95 | ≤ 50 | inhibition at 0.1 µM (SYK): 55 to 90%; inhibition at 0.1 µM (ULK1): 55 to 90%; inhibition at 0.1 µM (YES1): 55 to 90%
